The values below come from patent US8680159B2, “Bradykinin 1 receptor modulating compounds” (Gruenenthal GmbH, priority 2010, dated 2014).

One test has as its target T1, B1R receptor of the rat (CHO K1 cells stably transfected with the B1R gene of the rat) (Rattus norvegicus, UniProt P97583).
T1 construct: expressed in transfected cells; host or cells: CHO K1 cells (Chinese hamster ovary), stably transfected
T1 sequence (P97583 1-337): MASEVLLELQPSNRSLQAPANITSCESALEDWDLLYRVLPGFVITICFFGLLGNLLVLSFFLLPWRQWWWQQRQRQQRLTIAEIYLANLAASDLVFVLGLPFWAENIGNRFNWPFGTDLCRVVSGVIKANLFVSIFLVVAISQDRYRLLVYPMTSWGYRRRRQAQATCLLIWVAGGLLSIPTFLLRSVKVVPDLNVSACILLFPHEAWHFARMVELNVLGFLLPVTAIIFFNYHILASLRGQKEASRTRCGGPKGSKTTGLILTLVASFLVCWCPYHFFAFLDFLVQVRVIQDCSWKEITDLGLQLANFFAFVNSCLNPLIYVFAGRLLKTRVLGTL
As to the kind of experiment: Functional study on the bradykinin receptor 1 (B1R), Ca2+ fluorescence (Fluo-4) FLIPR/Novostar assay, rB1R cells. The test is classed as cell-based. The settings on record: CHO-K1, 10 μM, library compounds CC_H, read-out: % Inhibition (r-B1R) at 10 μM. An outline of the steps: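 Stably transfected CHO K1 cells carrying human or rat B1R were Fluo-4 loaded and Ca2+ fluorescence read by FLIPR or Novostar. Compounds were added first at 10 μM for % activation, then the EC80 agonist was applied after 6-20 min (human: Lys-Des-Arg9-bradykinin; rat: Des-Arg9-bradykinin). % inhibition is relative to maximum achievable inhibition, and IC50 comes from concentration series.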
In the case of `CN(C(=O)c1ccc2c(c1)C(NC(=O)c1cccnc1C(F)(F)F)CC2)C1CCN(c2ncncc2F)CC1` (stereo not drawn) [CC_H-621, N-[6-[[1-(5-Fluoro-pyrimidin-4-yl)-piperidin-4-yl]-methyl-carbamoyl]-2,3-dihydro-1H-inden-1-yl]-2-(trifluoromethyl)-pyridine-3-carboxylic acid amide], the inhibition (commonly the relative decrease from the control value, in per cent) at 10 µM was 98%. On the same count and under the same terms, the figure for `Cc1cc(N2CCC(N(C)C(=O)c3ccc4c(c3)C(NC(=O)CCC3CCCC3)CC4)CC2)nc(N(C)C)n1` (stereo not drawn) [CC_H-622, 3-(3-Cyclopentyl-propanoylamino)-N-[1-(2-dimethylamino-6-methyl-pyrimidin-4-yl)-piperidin-4-yl]-N-methyl-2,3-dihydro-1H-indene-5-carboxylic acid amide] is 100%. For `CN(C(=O)c1ccc2c(c1)C(NC(=O)CCC1CCCC1)CC2)C1CCN(c2ccnc(C3CC3)n2)CC1` (stereo not drawn) [CC_H-630, 3-(3-Cyclopentyl-propanoylamino)-N-[1-(2-cyclopropyl-pyrimidin-4-yl)-piperidin-4-yl]-N-methyl-2,3-dihydro-1H-indene-5-carboxylic acid amide], the inhibition at 10 µM is 95%.

Take `CN(C(=O)c1ccc2c(c1)C(NC(=O)c1cccnc1C(F)(F)F)CC2)C1CCN(c2ccnc(C(C)(C)C)n2)CC1` (stereo not drawn) [CC_H-606, N-[6-[[1-(2-tert-Butyl-pyrimidin-4-yl)-piperidin-4-yl]-methyl-carbamoyl]-2,3-dihydro-1H-inden-1-yl]-2-(trifluoromethyl)-pyridine-3-carboxylic acid amide]: the inhibition at 10 µM is 99%. As to `CN(C(=O)c1ccc2c(c1)C(NC(=O)CCC1CCCC1)CC2)C1CCN(c2ccnc(N3CCCC3)n2)CC1` (stereo not drawn) [CC_H-620, 3-(3-Cyclopentyl-propanoylamino)-N-methyl-N-[1-(2-pyrrolidin-1-yl-pyrimidin-4-yl)-piperidin-4-yl]-2,3-dihydro-1H-indene-5-carboxylic acid amide], the inhibition at 10 µM came to 102%. Regarding `CN(C(=O)c1ccc2c(c1)C(NC(=O)c1ccccc1Cl)CC2)C1CCN(c2ccnc(S(C)(=O)=O)n2)CC1` (stereo not drawn) [CC_H-609, 3-[(2-Chloro-benzoyl)amino]-N-methyl-N-[1-(2-methylsulfonyl-pyrimidin-4-yl)-piperidin-4-yl]-2,3-dihydro-1H-indene-5-carboxylic acid amide], the inhibition at 10 µM came to 102%.

The same test, now with this note: CHO-K1, 10 μM, read-out: % Inhibition (r-B1R) at 10 μM.
In the case of `CN(C(=O)c1ccc2c(c1)C(NC(=O)c1cc(F)ccc1Cl)CC2)C1CCN(c2ccncc2)CC1` (stereo not drawn) [CC_H-200, 3-[(2-Chloro-5-fluoro-benzoyl)amino]-N-methyl-N-(1-pyridin-4-yl-piperidin-4-yl)-2,3-dihydro-1H-indene-5-carboxylic acid amide], the inhibition at 10 µM was 111%. As to `Cc1cc(N2CCC(N(C)C(=O)c3ccc4c(c3)C(NC(=O)Nc3cc(Cl)ccc3Cl)CC4)CC2)cc(C)n1` (stereo not drawn) [CC_H-308, 3-[[(2,5-Dichloro-phenyl)-carbamoyl]amino]-N-[1-(2,6-dimethyl-pyridin-4-yl)-piperidin-4-yl]-N-methyl-2,3-dihydro-1H-indene-5-carboxylic acid amide], the inhibition at 10 µM amounted to 96%. In the case of `Cc1cc(N2CCC(N(C)C(=O)c3ccc4c(c3)C(NC(=O)N(C)c3ccccc3Cl)CC4)CC2)cc(C)n1` (stereo not drawn) [CC_H-316, 3-[[(2-Chlorophenyl)-methyl-carbamoyl]amino]-N-[1-(2,6-dimethyl-pyridin-4-yl)-piperidin-4-yl]-N-methyl-2,3-dihydro-1H-indene-5-carboxylic acid amide], the inhibition at 10 µM is 106%.

For `Cc1cc(N2CCC(N(C)C(=O)c3ccc4c(c3)C(N(C)C(=O)C3CCCCC3)CC4)CC2)cc(C)n1` (stereo not drawn) [CC_H-330, 3-(Cyclohexanecarbonyl-methyl-amino)-N-[1-(2,6-dimethyl-pyridin-4-yl)-piperidin-4-yl]-N-methyl-2,3-dihydro-1H-indene-5-carboxylic acid amide], the inhibition at 10 µM was 111%. Take `Cc1cc(N2CCC(N(C)C(=O)c3ccc4c(c3)C(N(C)C(=O)c3c(F)ccc(C)c3Cl)CC4)CC2)cc(C)n1` (stereo not drawn) [CC_H-327, 3-[(2-Chloro-6-fluoro-3-methyl-benzoyl)-methyl-amino]-N-[1-(2,6-dimethyl-pyridin-4-yl)-piperidin-4-yl]-N-methyl-2,3-dihydro-1H-indene-5-carboxylic acid amide]: the inhibition at 10 µM was found to be 112%. In the case of `Cc1cc(N2CCC(N(C)C(=O)c3ccc4c(c3)C(N(C)C(=O)c3c(Cl)cccc3C(F)(F)F)CC4)CC2)cc(C)n1` (stereo not drawn) [CC_H-329, 3-[[2-Chloro-6-(trifluoromethyl)-benzoyl]-methyl-amino]-N-[1-(2,6-dimethyl-pyridin-4-yl)-piperidin-4-yl]-N-methyl-2,3-dihydro-1H-indene-5-carboxylic acid amide], the inhibition at 10 µM was 111%. On to `Cc1cc(N2CCC(N(C)C(=O)c3ccc4c(c3)C(N(C)C(=O)Nc3ccc(F)c(Cl)c3)CC4)CC2)cc(C)n1` (stereo not drawn) [CC_H-346, 3-[[(3-Chloro-4-fluoro-phenyl)-carbamoyl]-methyl-amino]-N-[1-(2,6-dimethyl-pyridin-4-yl)-piperidin-4-yl]-N-methyl-2,3-dihydro-1H-indene-5-carboxylic acid amide], for which the inhibition at 10 µM was 70%. Turning to `Cc1cc(N2CCC(N(C)C(=O)c3ccc4c(c3)C(N(C)C(=O)Nc3cc(C(F)(F)F)ccc3Cl)CC4)CC2)cc(C)n1` (stereo not drawn) [CC_H-343, 3-[[[2-Chloro-5-(trifluoromethyl)-phenyl]-carbamoyl]-methyl-amino]-N-[1-(2,6-dimethyl-pyridin-4-yl)-piperidin-4-yl]-N-methyl-2,3-dihydro-1H-indene-5-carboxylic acid amide], the inhibition at 10 µM was 67%.

Take `CC(C)CC(=O)NC1CCCc2ccc(C(=O)N(C)C3CCN(c4ccncc4)CC3)cc21` (stereo not drawn) [CC_H-271, N-Methyl-8-(3-methyl-butanoylamino)-N-(1-pyridin-4-yl-piperidin-4-yl)-5,6,7,8-tetrahydro-naphthalene-2-carboxylic acid amide]: the inhibition at 10 µM is 109%. The same measure, in the same setting: the figure for `Cc1cc(N2CCC(N(C)C(=O)c3ccc4c(c3)C(N(C)C(=O)Nc3ccc(Cl)cc3Cl)CC4)CC2)cc(C)n1` (stereo not drawn) [CC_H-342, 3-[[(2,4-Dichlorophenyl)-carbamoyl]-methyl-amino]-N-[1-(2,6-dimethyl-pyridin-4-yl)-piperidin-4-yl]-N-methyl-2,3-dihydro-1H-indene-5-carboxylic acid amide] is 107%; for `COCC(=O)NC1CCc2ccc(C(=O)N(C)C3CCN(c4cc(C)nc(C)c4)CC3)cc21` (stereo not drawn) [CC_H-300, N-[1-(2,6-Dimethyl-pyridin-4-yl)-piperidin-4-yl]-3-[(2-methoxy-acetyl)amino]-N-methyl-2,3-dihydro-1H-indene-5-carboxylic acid amide] it is 103%. `CCS(=O)(=O)NC1CCc2ccc(C(=O)N(C)C3CCN(c4cc(C)nc(C)c4)CC3)cc21` (stereo not drawn) [CC_H-321, N-[1-(2,6-Dimethyl-pyridin-4-yl)-piperidin-4-yl]-3-[(ethylsulfonyl)amino]-N-methyl-2,3-dihydro-1H-indene-5-carboxylic acid amide]: the inhibition at 10 µM worked out at 65%. In the case of `CN(C(=O)c1ccc2c(c1)C(NC(=O)c1cc(C(F)(F)F)ccc1Cl)CC2)C1CCN(c2ccncc2)CC1` (stereo not drawn) [CC_H-201, 3-[[2-Chloro-5-(trifluoromethyl)-benzoyl]amino]-N-methyl-N-(1-pyridin-4-yl-piperidin-4-yl)-2,3-dihydro-1H-indene-5-carboxylic acid amide], the inhibition at 10 µM stood at 111%. In the case of `CN(C(=O)NC1CCCc2ccc(C(=O)N(C)C3CCN(c4ccncc4)CC3)cc21)c1ccc(Cl)cc1Cl` (stereo not drawn) [CC_H-269, 8-[[(2,4-Dichlorophenyl)-methyl-carbamoyl]amino]-N-methyl-N-(1-pyridin-4-yl-piperidin-4-yl)-5,6,7,8-tetrahydro-naphthalene-2-carboxylic acid amide], the inhibition at 10 µM stood at 109%. As to `Cc1cc(N2CCC(N(C)C(=O)c3ccc4c(c3)C(NS(=O)(=O)Cc3ccccc3C(F)(F)F)CC4)CC2)cc(C)n1` (stereo not drawn) [CC_H-302, N-[1-(2,6-Dimethyl-pyridin-4-yl)-piperidin-4-yl]-N-methyl-3-[[[2-(trifluoromethyl)-phenyl]-methylsulfonyl]amino]-2,3-dihydro-1H-indene-5-carboxylic acid amide], the inhibition at 10 µM is 112%. On to `CN(C(=O)c1ccc2c(c1)C(NC(=O)Nc1cc(Cl)ccc1Cl)CCO2)C1CCN(c2ccncc2)CC1` (stereo not drawn) [CC_H-283, 4-[[(2,5-Dichloro-phenyl)-carbamoyl]amino]-N-methyl-N-(1-pyridin-4-yl-piperidin-4-yl)-3,4-dihydro-2H-chromene-6-carboxylic acid amide], for which the inhibition at 10 µM is 106%.

Consider `Cc1cc(N2CCC(N(C)C(=O)c3ccc4c(c3)C(NC(=O)Nc3ccc(Cl)cc3C(F)(F)F)CC4)CC2)cc(C)n1` (stereo not drawn) [CC_H-312, 3-[[[4-Chloro-2-(trifluoromethyl)-phenyl]-carbamoyl]amino]-N-[1-(2,6-dimethyl-pyridin-4-yl)-piperidin-4-yl]-N-methyl-2,3-dihydro-1H-indene-5-carboxylic acid amide], for which the inhibition at 10 µM was 92%.

Consider `COc1ccc(Cl)cc1NC(=O)NC1CCc2ccc(C(=O)N(C)C3CCN(c4cc(C)nc(C)c4)CC3)cc21` (stereo not drawn) [CC_H-315, 3-[[(5-Chloro-2-methoxy-phenyl)-carbamoyl]amino]-N-[1-(2,6-dimethyl-pyridin-4-yl)-piperidin-4-yl]-N-methyl-2,3-dihydro-1H-indene-5-carboxylic acid amide], for which the inhibition at 10 µM came out at 72%.
